Results as given in the supplement of paper PMC12463676, “Small-molecule dissolution of stress granules by redox modulation benefits ALS models” (Nature Chemical Biology, 2025).

compound: NC(=O)CCCCC1CCSS1 [lipoamide]; test: thermal stability z-score vs DMSO; higher = more thermally stabilized by treatment; settings: HeLa; lipoamide concentration 100 µM; arsenate co-treatment: 1 mM arsenate 1 h
Experimental: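 Cellular thermal proteome profiling in HeLa cells. Cells were treated with 100 µM lipoamide for 1 h, with or without 1 mM arsenate for a further 1 h, then heated to ten temperatures (37-66.3 °C), and soluble protein was quantified by TMT mass spectrometry relative to 0.1% DMSO controls. The thermal stability score (sum of log2 fold changes minus the abundance score) was transformed to a z-score; mean of n = 3 experiments.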
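Further: each temperature applied for 3 min, abundance score taken as mean log2 fold change at the two lowest temperatures, z-score obtained by mean subtraction and division by SD.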

Chain of UniProt Q5VTL8 (Q5VTL8 whole entry): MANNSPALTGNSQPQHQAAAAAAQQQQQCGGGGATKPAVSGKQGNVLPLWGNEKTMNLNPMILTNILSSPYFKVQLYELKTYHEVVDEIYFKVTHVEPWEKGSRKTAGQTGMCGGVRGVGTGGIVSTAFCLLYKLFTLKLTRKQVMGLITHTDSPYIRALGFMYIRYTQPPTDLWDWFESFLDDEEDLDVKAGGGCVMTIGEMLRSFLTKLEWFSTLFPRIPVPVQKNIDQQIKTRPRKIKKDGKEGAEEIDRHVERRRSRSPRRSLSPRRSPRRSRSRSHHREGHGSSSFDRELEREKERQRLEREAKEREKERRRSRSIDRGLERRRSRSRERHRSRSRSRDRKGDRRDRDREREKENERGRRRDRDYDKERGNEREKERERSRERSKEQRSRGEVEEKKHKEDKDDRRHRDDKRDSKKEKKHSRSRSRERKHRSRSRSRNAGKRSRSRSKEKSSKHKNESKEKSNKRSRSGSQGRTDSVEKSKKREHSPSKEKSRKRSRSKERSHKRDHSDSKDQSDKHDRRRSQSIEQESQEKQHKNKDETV
Chain of UniProt O95757 (O95757 whole entry): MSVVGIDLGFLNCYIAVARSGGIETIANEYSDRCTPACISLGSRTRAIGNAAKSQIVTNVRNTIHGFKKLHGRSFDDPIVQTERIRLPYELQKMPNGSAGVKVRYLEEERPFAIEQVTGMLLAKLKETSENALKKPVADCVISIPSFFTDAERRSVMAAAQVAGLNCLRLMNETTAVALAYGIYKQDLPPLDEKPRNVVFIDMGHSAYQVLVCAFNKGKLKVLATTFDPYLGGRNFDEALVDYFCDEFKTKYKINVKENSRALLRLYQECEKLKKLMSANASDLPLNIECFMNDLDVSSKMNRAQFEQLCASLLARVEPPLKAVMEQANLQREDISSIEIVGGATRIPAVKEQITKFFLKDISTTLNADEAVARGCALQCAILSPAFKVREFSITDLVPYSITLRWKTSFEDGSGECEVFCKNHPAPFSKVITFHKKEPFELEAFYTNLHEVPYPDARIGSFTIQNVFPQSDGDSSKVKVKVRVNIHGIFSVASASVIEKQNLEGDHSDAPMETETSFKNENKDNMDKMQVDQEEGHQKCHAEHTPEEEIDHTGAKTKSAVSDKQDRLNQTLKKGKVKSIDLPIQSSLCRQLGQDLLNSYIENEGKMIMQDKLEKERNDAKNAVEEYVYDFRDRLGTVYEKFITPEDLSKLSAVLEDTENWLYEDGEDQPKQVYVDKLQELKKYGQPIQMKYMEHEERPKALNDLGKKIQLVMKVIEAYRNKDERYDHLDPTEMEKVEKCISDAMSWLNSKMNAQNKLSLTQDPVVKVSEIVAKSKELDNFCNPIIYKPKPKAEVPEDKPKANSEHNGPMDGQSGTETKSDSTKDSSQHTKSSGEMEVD
Chain of UniProt Q9UI09 (Q9UI09 whole entry): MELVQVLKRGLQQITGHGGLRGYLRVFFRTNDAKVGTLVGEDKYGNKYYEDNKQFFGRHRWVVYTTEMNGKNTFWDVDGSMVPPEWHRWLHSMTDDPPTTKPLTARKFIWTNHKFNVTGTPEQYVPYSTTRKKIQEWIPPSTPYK
Chain of UniProt O60333 (O60333 whole entry): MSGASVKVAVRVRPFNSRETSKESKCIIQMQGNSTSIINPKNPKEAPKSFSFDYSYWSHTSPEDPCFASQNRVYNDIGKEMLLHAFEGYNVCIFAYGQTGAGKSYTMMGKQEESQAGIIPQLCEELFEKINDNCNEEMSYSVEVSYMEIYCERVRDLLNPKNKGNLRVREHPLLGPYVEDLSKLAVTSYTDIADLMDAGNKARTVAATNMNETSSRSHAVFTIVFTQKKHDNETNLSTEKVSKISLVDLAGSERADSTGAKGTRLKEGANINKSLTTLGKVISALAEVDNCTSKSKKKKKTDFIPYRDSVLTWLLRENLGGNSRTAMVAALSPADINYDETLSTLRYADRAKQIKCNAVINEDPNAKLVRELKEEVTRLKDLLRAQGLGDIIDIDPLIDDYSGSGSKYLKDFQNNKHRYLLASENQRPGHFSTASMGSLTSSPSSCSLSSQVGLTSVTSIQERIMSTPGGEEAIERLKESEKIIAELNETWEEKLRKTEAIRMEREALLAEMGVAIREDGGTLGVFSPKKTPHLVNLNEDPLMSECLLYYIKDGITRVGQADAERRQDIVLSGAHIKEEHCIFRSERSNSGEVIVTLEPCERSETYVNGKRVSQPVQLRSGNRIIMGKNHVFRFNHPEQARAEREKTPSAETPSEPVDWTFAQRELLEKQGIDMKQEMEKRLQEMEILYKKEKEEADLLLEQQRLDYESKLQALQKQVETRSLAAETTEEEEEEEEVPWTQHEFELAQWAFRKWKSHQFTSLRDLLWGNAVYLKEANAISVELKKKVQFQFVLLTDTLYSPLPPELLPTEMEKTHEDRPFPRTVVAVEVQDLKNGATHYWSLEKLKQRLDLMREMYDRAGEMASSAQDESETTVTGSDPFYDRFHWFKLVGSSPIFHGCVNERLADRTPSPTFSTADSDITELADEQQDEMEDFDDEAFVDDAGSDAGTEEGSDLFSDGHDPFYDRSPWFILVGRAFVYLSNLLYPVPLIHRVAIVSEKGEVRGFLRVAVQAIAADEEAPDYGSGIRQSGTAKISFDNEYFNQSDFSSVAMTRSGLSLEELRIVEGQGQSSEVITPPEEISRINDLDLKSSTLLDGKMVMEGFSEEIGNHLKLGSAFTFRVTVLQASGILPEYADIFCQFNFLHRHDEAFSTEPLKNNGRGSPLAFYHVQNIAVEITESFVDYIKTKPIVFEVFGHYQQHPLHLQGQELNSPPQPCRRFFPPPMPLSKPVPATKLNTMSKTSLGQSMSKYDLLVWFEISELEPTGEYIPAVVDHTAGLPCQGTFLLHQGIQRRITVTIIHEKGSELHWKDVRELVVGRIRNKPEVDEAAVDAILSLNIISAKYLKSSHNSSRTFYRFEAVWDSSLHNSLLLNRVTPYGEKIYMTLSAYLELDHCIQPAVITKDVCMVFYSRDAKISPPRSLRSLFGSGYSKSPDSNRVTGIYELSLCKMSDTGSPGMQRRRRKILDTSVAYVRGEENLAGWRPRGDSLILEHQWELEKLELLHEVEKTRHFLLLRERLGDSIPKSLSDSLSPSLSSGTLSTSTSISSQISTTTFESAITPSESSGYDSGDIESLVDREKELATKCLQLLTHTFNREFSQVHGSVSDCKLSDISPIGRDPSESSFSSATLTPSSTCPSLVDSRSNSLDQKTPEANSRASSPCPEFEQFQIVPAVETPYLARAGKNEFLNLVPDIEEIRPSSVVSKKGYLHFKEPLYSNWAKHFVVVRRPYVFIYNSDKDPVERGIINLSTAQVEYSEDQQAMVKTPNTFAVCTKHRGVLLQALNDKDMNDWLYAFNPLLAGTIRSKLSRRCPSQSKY
Chain of UniProt Q9ULM6 (Q9ULM6 whole entry): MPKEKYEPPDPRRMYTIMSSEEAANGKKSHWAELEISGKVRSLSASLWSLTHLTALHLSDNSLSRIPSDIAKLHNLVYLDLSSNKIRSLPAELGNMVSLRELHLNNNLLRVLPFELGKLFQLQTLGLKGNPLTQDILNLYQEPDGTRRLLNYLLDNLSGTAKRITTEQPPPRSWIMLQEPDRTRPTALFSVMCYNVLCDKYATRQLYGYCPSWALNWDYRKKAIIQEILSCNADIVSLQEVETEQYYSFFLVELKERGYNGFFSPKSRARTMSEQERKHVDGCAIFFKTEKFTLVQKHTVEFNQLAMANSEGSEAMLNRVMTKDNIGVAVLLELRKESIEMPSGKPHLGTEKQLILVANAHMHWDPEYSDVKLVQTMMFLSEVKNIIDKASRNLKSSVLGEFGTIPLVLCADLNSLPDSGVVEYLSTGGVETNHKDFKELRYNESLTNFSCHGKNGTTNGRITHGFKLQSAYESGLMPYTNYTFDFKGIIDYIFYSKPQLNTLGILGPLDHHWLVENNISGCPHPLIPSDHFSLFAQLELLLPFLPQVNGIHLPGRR
Chain of UniProt Q04725 (Q04725 whole entry): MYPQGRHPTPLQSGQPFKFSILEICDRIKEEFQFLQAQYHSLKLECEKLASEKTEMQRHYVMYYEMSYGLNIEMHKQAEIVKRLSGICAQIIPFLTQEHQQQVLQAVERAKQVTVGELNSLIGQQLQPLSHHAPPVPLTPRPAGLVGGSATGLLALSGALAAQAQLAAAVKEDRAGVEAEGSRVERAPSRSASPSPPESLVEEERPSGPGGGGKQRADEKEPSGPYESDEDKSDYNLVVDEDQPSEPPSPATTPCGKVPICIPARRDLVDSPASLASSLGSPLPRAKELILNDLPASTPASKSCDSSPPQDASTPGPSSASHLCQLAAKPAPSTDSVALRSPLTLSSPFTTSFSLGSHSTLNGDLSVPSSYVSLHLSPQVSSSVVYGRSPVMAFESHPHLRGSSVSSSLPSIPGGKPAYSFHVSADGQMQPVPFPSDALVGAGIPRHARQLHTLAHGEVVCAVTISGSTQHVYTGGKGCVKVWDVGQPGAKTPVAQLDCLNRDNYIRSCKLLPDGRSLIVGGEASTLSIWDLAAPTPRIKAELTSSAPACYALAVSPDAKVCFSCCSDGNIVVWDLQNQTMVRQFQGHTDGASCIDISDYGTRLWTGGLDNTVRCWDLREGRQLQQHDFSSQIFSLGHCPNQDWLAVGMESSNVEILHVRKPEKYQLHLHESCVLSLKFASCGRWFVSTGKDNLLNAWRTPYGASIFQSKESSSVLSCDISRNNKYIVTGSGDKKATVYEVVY
Chain of UniProt P24534 (P24534 whole entry): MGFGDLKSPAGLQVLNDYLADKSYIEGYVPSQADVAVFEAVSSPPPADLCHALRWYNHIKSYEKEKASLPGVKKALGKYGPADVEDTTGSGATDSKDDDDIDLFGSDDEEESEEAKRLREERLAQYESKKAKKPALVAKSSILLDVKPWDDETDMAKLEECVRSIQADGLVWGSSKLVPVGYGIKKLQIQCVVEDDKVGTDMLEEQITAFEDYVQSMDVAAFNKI
Chain of UniProt Q9NQP4 (Q9NQP4 whole entry): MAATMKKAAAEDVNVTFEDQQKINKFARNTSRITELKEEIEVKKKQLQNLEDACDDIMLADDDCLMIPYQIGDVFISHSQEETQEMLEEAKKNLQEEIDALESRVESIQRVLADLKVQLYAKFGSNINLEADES

In order of falling thermal stability z-score:
1. EEF1B2 (UniProt P24534)  0.748
2. IDH3G (UniProt P51553)  0.738
3. DYNLT3 (UniProt P51808)  0.487
4. PPP2R5A (UniProt Q15172)  0.468
5. SLC52A2 (UniProt Q9HAB3)  0.194
6. RPL11 (UniProt P62913)  0.156
7. PCIF1 (UniProt Q9H4Z3)  0.0909
8. BCKDK (UniProt O14874)  0.0555
9. NDUFA12 (UniProt Q9UI09)  -0.0618
10. GTF3C3 (UniProt Q9Y5Q9)  -0.0672
11. TAF6 (UniProt P49848)  -0.0822
12. BIN3 (UniProt Q9NQY0)  -0.115
13. SORBS3 (UniProt O60504)  -0.117
14. TIA1 (UniProt P31483)  -0.376
15. LRRC59 (UniProt Q96AG4)  -0.768
16. PRPF38B (UniProt Q5VTL8)  -0.807
17. DDX3X (UniProt O00571)  -0.829
18. GET4 (UniProt Q7L5D6)  -0.844

same assay, conditions: HeLa; lipoamide concentration 100 µM; arsenate co-treatment: none

In order of falling thermal stability z-score:
1. FAM173B (UniProt Q6P4H8)  1.31
2. ZDHHC17 (UniProt Q8IUH5)  1.07
3. DCAF7 (UniProt P61962)  0.939
4. HSPE1 (UniProt P61604)  0.918
5. TLE2 (UniProt Q04725)  0.842
6. ANXA1 (UniProt P04083)  0.83
7. ARRDC1 (UniProt Q8N5I2)  0.802
8. KANK1 (UniProt Q14678)  0.616
9. STEAP3 (UniProt Q658P3)  0.572
10. ENSA (UniProt O43768)  0.567
11. ATP6V1G1 (UniProt O75348)  0.473
12. DHRSX (UniProt Q8N5I4)  0.418
13. PFDN4 (UniProt Q9NQP4)  0.37
14. HECTD4 (UniProt Q9Y4D8)  0.341
15. PTPMT1 (UniProt Q8WUK0)  0.326
16. ITGA3 (UniProt P26006)  0.207
17. IFI16 (UniProt Q16666)  0.122
18. TMEM209 (UniProt Q96SK2)  0.109
19. SLC15A4 (UniProt Q8N697)  0.0913
20. PGGT1B (UniProt P53609)  0.0735
21. LRRC45 (UniProt Q96CN5)  0.0708
22. WDR3 (UniProt Q9UNX4)  0.0101
23. TSC1 (UniProt Q92574)  -0.0297
24. ATPAF1 (UniProt Q5TC12)  -0.084
25. HSPA4L (UniProt O95757)  -0.0888
26. CNOT6 (UniProt Q9ULM6)  -0.108
27. ANP32B (UniProt Q92688)  -0.129
28. PSME1 (UniProt Q06323)  -0.217
29. SNRNP200 (UniProt O75643)  -0.285
30. KIF1B (UniProt O60333)  -0.322
31. DSTYK (UniProt Q6XUX3)  -0.378
32. FTO (UniProt Q9C0B1)  -0.447
33. CCDC59 (UniProt Q9P031)  -0.816
34. TXNDC11 (UniProt Q6PKC3)  -0.984
35. ATG101 (UniProt Q9BSB4)  -1.42
